Measured values taken from publication doi:10.1101/510487v2 (biorxiv, 2019).
Values belong to the molecule of their own block, whether it stands above or below them.

Columns and labels:
FH-hGlyT2; human GlyT2 = molecular target: T1, FH-hGlyT2; human GlyT2 (Homo sapiens, UniProt Q9Y345); assay: glycine uptake inhibition in PAE cells; type: cell-based
T1 sequence (Q9Y345 1-797): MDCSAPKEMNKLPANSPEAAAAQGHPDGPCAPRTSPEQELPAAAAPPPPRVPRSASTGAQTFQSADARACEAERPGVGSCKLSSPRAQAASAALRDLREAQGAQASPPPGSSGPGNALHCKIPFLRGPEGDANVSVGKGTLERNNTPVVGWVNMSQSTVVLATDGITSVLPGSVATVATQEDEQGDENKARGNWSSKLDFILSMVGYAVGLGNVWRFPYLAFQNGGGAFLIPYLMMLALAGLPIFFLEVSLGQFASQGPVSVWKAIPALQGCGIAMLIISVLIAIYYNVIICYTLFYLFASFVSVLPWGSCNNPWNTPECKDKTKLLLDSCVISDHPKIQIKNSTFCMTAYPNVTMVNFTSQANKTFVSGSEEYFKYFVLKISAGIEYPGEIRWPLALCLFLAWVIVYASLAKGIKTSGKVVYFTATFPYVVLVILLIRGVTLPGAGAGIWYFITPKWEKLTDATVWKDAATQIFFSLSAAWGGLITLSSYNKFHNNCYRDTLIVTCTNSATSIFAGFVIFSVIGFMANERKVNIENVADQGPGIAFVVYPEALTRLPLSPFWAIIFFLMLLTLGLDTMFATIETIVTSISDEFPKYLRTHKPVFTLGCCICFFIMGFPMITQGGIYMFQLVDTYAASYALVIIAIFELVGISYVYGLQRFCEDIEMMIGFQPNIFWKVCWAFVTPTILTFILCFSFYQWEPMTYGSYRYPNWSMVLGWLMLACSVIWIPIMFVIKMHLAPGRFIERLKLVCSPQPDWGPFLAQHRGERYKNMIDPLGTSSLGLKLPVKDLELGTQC

[1] = substrate: NCC(=O)O; assay: glycine uptake in PAE cells; type: cell-based, Homo sapiens

Molecule: O=C(O)CCSc1[nH]c(=O)nc2[nH]c(=O)[nH]c12 [compound 1, ZINC6620309]
- IC50 (FH-hGlyT2; human GlyT2; pH 7.5, 10 min uptake): 478 ± 28 nM

Molecule: O=c1[nH]c2c(c(=O)[nH]1)CCN(Cc1ccccc1)C2 [Lead 3]
- IC50 (FH-hGlyT2; human GlyT2; pH 7.5, 10 min uptake): 33200 nM

B1: FH-hGlyT2; human GlyT2 (Homo sapiens) (protein)
chain: T1 sequence (Q9Y345 1-797)
- Km [1]: 123 µM

Further lines, results first:

- IC50 (FH-hGlyT2; human GlyT2; slow rate of inhibition, data not shown): 1800 nM
Molecule: CN(CC[C@@H](Oc1ccc(-c2ccccc2)cc1)c1ccc(F)cc1)CC(=O)O [ALX5407, reference compound]

- IC50 (FH-hGlyT2; human GlyT2; pH 7.5, 10 min uptake): 518 ± 66 nM
Molecule: O=C(O)CCCCSc1ncnc2[nH]c(=O)[nH]c12 [ZINC6865169]

- IC50 (FH-hGlyT2; human GlyT2; pH 7.5, 10 min uptake): 26 ± 3 nM
Molecule: N[C@@H](COC(c1cccc(F)c1)c1ccccc1OCc1ccccc1)C(=O)O (stereo partly drawn) [ALX1393, reference compound]
